Reference: patent publication EP4745135A1 (Gluetacs Therapeutics (Shanghai) Co., Ltd., priority 2023, dated 2025)
Blank lines part the entries; values can stand above or below the compound they belong to.

Tests used:
CK1α = molecular target: T1, CK1α (Homo sapiens, UniProt P48729+Q96SW2); assay: Western blot, degradation of substrate protein in hPBMCs; format: cell-based; conditions: 24 hours treatment, compounds at 50 nM and 500 nM (concentration behind the class not stated)
T1 construct: effects of the compounds of the present disclosure on the expression of target proteins in cells; endogenous in cells; host or cells: human PBMCs (Milecell Biotechnologies)

IKZF1 = molecular target: T2, IKZF1 (Homo sapiens, UniProt Q13422+Q96SW2); assay: as above; format: cell-based; conditions: 24 hours treatment, compounds at 50 nM and 500 nM (concentration behind the class not stated)
T2 construct: effects of the compounds of the present disclosure on the expression of target proteins in cells; endogenous in cells; host or cells: human PBMCs (Milecell Biotechnologies)

IKZF3 = molecular target: T3, IKZF3 (Homo sapiens, UniProt Q96SW2+Q9UKT9); assay: as above; format: cell-based; conditions: 24 hours treatment, compounds at 50 nM and 500 nM (concentration behind the class not stated)
T3 construct: effects of the compounds of the present disclosure on the expression of target proteins in cells; endogenous in cells; host or cells: human PBMCs (Milecell Biotechnologies)

WEE1 = molecular target: T4, WEE1 (Homo sapiens, UniProt P30291+Q96SW2); assay: as above; format: cell-based; conditions: 24 hours treatment, compounds at 50 nM and 500 nM (concentration behind the class not stated)
T4 construct: effects of the compounds of the present disclosure on the expression of target proteins in cells; endogenous in cells; host or cells: human PBMCs (Milecell Biotechnologies)

IKZF2 = molecular target: T5, IKZF2 (Homo sapiens, UniProt Q96SW2+Q9UKS7); assay: as above; format: cell-based; conditions: 24 hours treatment, compounds at 50 nM and 500 nM (concentration behind the class not stated)
T5 construct: effects of the compounds of the present disclosure on the expression of target proteins in cells; endogenous in cells; host or cells: human PBMCs (Milecell Biotechnologies)

[1] = molecular target: T6, human Cereblon WT GST-tagged protein (Homo sapiens, UniProt Q96SW2); assay: CRBN-binding affinity, HTRF (CEREBLON BINDING kit); conditions: for inhibition at 0.5 µM: read-out: Inhibition Rate at 0.5 µM (%); for inhibition at 2 µM: read-out: Inhibition Rate at 2 µM (%)
T6 construct: purchased CISBIO 64BDCRBNPEH

GSPT1 = assay: Western blot, degradation of substrate protein in hPBMCs; format: cell-based, Human; conditions: 24 hours treatment, compounds at 50 nM and 500 nM (concentration behind the class not stated)

T6 sequence (Q96SW2 whole entry): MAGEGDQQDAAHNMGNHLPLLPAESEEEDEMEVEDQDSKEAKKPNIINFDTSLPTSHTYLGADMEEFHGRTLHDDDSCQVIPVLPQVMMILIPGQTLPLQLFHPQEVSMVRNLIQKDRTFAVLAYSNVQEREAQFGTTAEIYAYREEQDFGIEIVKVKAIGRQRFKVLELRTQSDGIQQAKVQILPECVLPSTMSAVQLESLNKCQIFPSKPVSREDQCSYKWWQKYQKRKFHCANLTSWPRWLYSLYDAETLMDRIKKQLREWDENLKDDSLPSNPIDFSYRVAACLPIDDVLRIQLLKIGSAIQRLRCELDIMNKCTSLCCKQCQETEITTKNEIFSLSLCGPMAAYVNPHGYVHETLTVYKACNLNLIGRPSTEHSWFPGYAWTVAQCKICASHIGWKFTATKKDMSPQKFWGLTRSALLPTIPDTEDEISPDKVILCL
T3 sequence (Q9UKT9 whole entry): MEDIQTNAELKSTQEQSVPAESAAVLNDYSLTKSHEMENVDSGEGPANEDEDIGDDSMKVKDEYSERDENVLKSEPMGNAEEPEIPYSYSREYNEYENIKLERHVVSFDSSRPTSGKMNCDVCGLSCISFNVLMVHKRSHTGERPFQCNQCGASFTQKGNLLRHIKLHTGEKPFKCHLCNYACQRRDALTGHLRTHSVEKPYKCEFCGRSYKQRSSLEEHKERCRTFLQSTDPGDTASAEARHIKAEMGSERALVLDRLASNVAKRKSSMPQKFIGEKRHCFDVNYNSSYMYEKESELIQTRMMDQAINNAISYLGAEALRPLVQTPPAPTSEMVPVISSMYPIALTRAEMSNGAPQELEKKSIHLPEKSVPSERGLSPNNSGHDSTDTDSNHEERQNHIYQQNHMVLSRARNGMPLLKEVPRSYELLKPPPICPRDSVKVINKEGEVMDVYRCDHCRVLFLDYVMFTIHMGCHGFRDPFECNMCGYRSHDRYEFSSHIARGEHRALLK
T3 sequence (Q96SW2 whole entry): as the sequence (Q96SW2 whole entry) above
T3 sequence (Q16531 whole entry partner): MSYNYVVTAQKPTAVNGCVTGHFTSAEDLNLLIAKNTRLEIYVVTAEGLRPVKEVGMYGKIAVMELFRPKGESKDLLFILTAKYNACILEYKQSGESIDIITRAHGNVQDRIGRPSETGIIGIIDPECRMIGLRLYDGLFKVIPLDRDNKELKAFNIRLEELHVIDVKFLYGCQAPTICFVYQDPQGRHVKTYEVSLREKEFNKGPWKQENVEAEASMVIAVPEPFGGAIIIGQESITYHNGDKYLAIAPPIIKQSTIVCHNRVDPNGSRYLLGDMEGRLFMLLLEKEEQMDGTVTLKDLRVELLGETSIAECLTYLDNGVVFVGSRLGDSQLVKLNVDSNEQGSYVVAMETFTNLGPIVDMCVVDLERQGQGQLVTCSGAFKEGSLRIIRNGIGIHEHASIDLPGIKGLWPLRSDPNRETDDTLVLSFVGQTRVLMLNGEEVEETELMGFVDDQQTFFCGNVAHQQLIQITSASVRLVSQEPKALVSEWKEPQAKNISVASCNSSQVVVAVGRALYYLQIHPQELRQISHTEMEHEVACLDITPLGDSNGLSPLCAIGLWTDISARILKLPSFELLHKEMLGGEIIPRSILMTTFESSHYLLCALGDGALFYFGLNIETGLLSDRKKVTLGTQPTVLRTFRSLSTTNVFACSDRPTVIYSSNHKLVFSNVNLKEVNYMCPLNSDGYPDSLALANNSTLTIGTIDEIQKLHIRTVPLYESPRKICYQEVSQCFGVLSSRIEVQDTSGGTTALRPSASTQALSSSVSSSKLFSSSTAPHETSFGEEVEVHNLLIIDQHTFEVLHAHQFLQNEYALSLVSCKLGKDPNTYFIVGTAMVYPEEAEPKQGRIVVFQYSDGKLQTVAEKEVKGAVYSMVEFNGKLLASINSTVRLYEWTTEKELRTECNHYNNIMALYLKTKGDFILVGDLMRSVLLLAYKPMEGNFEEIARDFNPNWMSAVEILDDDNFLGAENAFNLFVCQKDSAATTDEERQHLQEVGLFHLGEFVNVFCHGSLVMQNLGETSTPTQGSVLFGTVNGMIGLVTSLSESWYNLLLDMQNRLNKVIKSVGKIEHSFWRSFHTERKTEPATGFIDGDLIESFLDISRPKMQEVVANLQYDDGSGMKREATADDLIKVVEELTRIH
T4 sequence (P30291 whole entry): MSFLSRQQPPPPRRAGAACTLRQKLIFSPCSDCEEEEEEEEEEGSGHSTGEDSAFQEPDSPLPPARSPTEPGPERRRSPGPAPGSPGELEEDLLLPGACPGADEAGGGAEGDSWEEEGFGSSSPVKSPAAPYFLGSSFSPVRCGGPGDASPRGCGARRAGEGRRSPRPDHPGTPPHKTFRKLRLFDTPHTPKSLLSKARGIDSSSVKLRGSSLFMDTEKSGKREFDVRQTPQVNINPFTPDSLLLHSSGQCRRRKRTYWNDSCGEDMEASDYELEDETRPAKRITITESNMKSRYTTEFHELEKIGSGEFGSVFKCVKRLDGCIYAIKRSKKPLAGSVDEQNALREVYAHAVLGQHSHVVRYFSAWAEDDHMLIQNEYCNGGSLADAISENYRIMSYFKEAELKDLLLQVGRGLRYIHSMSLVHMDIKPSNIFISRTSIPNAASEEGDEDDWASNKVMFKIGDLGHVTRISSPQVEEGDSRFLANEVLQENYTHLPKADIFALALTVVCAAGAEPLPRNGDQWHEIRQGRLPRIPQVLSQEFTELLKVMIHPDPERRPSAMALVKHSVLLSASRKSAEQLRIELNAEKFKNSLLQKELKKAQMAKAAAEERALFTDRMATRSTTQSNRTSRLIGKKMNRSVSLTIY
T4 sequence (Q96SW2 whole entry): as the sequence (Q96SW2 whole entry) above
T4 sequence (Q16531 whole entry partner): as the sequence (Q16531 whole entry partner) above
T5 sequence (Q9UKS7 whole entry): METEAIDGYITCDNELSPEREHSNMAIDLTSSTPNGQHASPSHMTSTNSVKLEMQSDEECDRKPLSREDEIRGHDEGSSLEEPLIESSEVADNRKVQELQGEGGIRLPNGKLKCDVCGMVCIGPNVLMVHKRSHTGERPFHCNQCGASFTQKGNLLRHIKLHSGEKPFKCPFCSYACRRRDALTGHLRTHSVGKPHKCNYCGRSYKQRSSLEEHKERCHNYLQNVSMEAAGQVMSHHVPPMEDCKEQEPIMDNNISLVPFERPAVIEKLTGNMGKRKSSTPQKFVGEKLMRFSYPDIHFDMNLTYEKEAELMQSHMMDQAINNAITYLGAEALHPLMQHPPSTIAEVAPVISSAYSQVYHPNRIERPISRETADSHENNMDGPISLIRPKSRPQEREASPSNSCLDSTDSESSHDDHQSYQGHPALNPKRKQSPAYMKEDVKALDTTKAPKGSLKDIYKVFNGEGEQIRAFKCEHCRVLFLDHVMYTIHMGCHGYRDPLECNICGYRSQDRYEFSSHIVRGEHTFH
T5 sequence (Q96SW2 whole entry): as the sequence (Q96SW2 whole entry) above
T5 sequence (Q16531 whole entry partner): as the sequence (Q16531 whole entry partner) above
T1 sequence (P48729 whole entry): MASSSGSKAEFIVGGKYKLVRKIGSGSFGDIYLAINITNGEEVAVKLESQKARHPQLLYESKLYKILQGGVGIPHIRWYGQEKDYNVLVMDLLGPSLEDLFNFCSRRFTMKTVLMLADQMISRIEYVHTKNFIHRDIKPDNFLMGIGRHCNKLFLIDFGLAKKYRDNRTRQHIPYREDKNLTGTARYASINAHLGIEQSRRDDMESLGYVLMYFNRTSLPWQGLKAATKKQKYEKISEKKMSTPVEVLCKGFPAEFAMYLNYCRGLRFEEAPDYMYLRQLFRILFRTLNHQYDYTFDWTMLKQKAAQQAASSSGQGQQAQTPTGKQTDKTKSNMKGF
T1 sequence (Q96SW2 whole entry): as the sequence (Q96SW2 whole entry) above
T1 sequence (Q16531 whole entry partner): as the sequence (Q16531 whole entry partner) above
T2 sequence (Q13422 whole entry): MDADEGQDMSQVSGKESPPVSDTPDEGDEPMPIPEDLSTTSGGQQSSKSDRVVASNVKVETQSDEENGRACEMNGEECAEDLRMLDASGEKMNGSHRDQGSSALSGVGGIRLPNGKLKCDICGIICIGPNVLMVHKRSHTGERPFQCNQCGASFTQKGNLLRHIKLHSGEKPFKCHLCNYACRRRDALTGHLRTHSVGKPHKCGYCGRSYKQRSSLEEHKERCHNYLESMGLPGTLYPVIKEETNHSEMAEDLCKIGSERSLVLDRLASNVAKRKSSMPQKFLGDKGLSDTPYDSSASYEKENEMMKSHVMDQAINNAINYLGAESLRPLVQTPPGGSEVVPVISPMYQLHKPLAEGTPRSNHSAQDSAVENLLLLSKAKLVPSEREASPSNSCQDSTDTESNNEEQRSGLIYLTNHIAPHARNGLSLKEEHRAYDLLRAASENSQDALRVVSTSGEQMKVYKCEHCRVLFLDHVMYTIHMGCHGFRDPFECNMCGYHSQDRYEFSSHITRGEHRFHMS
T2 sequence (Q96SW2 whole entry): as the sequence (Q96SW2 whole entry) above
T2 sequence (Q16531 whole entry partner): as the sequence (Q16531 whole entry partner) above

Compound: O=C1CCC(N2Cc3cc(CN4CCC(n5cnc6cc(F)ccc65)CC4)ccc3C2=S)C(=O)N1 (stereo not shown) [GT-09262, 3-(5-((4-(5-fluoro-1H-benzo[d]imidazol-1-yl)piperidin-1-yl)methyl)-1-thioxoisoindolin-2-yl)piperidine-2,6-dione]
CK1α substrate protein remaining % (CK1α): B (80%< substrate protein remaining %≤ 100%) | IKZF 1 substrate protein remaining % (IKZF1): B (80%< substrate protein remaining %≤ 100%) | IKZF3 substrate protein remaining % (IKZF3): B (80%< substrate protein remaining %≤ 100%) | Wee1 substrate protein remaining % (WEE1): B (80%< substrate protein remaining %≤ 100%) | IKZF2 substrate protein remaining % (IKZF2): B (80%< substrate protein remaining %≤ 100%) | inhibition at 0.5 µM [1]: 53 to 60% | inhibition at 2 µM [1]: 80 to 100% | GSPT1 substrate protein remaining % (GSPT1): A (0% ≤ substrate protein remaining % ≤ 80%)

Compound: O=C1CCC(N2Cc3cc(CN4CCC(n5c(=O)[nH]c6cc(F)ccc65)CC4)ccc3C2=S)C(=O)N1 (stereo not shown) [GT-09263, 3-(5-((4-(5-fluoro-2-oxo-2,3-dihydro-1H-benzo[d]imidazol-1-yl)piperidin-1-yl)methyl)-1-thioxoisoindolin-2-yl)piperidine-2,6-dione]
CK1α substrate protein remaining % (CK1α): B (80%< substrate protein remaining %≤ 100%) | IKZF 1 substrate protein remaining % (IKZF1): B (80%< substrate protein remaining %≤ 100%) | IKZF3 substrate protein remaining % (IKZF3): B (80%< substrate protein remaining %≤ 100%) | Wee1 substrate protein remaining % (WEE1): B (80%< substrate protein remaining %≤ 100%) | IKZF2 substrate protein remaining % (IKZF2): B (80%< substrate protein remaining %≤ 100%) | inhibition at 0.5 µM [1]: 60 to 80% | inhibition at 2 µM [1]: 80 to 100% | GSPT1 substrate protein remaining % (GSPT1): A (0% ≤ substrate protein remaining % ≤ 80%)

Compound: O=C1CCC(N2Cc3cc(CN4CCC(c5noc6ccccc56)CC4)ccc3C2=S)C(=O)N1 (stereo not shown) [GT-09266, 3-(5-((4-(benzo[d]isoxazol-3-yl)piperidin-1-yl)methyl)-1-thioxoisoindolin-2-yl)piperidine-2,6-dione]
CK1α substrate protein remaining % (CK1α): B (80%< substrate protein remaining %≤ 100%) | IKZF 1 substrate protein remaining % (IKZF1): B (80%< substrate protein remaining %≤ 100%) | IKZF3 substrate protein remaining % (IKZF3): B (80%< substrate protein remaining %≤ 100%) | Wee1 substrate protein remaining % (WEE1): B (80%< substrate protein remaining %≤ 100%) | IKZF2 substrate protein remaining % (IKZF2): B (80%< substrate protein remaining %≤ 100%) | inhibition at 0.5 µM [1]: 60 to 80% | inhibition at 2 µM [1]: 80 to 100% | GSPT1 substrate protein remaining % (GSPT1): A (0% ≤ substrate protein remaining % ≤ 80%)

Compound: O=C1CCC(N2Cc3cc(CN4CCC(c5cccc6c(F)cccc56)CC4)ccc3C2=S)C(=O)N1 (stereo not shown) [GT-09275, 3-(5-((4-(5-fluoronaphthalen-1-yl)piperidin-1-yl)methyl)-1-thioxoisoindolin-2-yl)piperidine-2,6-dione]
CK1α substrate protein remaining % (CK1α): B (80%< substrate protein remaining %≤ 100%) | IKZF 1 substrate protein remaining % (IKZF1): B (80%< substrate protein remaining %≤ 100%) | IKZF3 substrate protein remaining % (IKZF3): B (80%< substrate protein remaining %≤ 100%) | Wee1 substrate protein remaining % (WEE1): B (80%< substrate protein remaining %≤ 100%) | IKZF2 substrate protein remaining % (IKZF2): B (80%< substrate protein remaining %≤ 100%) | inhibition at 0.5 µM [1]: 30 to 40% | inhibition at 2 µM [1]: 60 to 80% | GSPT1 substrate protein remaining % (GSPT1): A (0% ≤ substrate protein remaining % ≤ 80%)

Compound: O=C1CCC(N2Cc3cc(CN4CCC(c5ccnc6cc(F)ccc56)CC4)ccc3C2=S)C(=O)N1 (stereo not shown) [GT-09278, 3-(5-((4-(7-fluoroquinolin-4-yl)piperidin-1-yl)methyl)-1-thioxoisoindolin-2-yl)piperidine-2,6-dione]
CK1α substrate protein remaining % (CK1α): B (80%< substrate protein remaining %≤ 100%) | IKZF 1 substrate protein remaining % (IKZF1): A (0% ≤ substrate protein remaining % ≤ 80%) | IKZF3 substrate protein remaining % (IKZF3): A (0% ≤ substrate protein remaining % ≤ 80%) | Wee1 substrate protein remaining % (WEE1): A (0% ≤ substrate protein remaining % ≤ 80%) | IKZF2 substrate protein remaining % (IKZF2): B (80%< substrate protein remaining %≤ 100%) | inhibition at 0.5 µM [1]: 30 to 40% | inhibition at 2 µM [1]: 60 to 80% | GSPT1 substrate protein remaining % (GSPT1): B (80%< substrate protein remaining %≤ 100%)

Now from value to compound, other results behind:

inhibition at 0.5 µM [1]: 53 to 60% | inhibition at 2 µM [1]: 80 to 100%
Compound: O=C1CCC(N2Cc3cc(CN4CCN(c5nsc6cc(F)ccc56)CC4)ccc3C2=S)C(=O)N1 (stereo not shown) [GT-09259, 3-(5-((4-(6-fluorobenzo[d]isothiazol-3-yl)piperazin-1-yl)methyl)-1-thioxoisoindolin-2-yl)piperidine-2,6-dione]
CK1α substrate protein remaining % (CK1α): B (80%< substrate protein remaining %≤ 100%) | IKZF 1 substrate protein remaining % (IKZF1): B (80%< substrate protein remaining %≤ 100%) | IKZF3 substrate protein remaining % (IKZF3): B (80%< substrate protein remaining %≤ 100%) | Wee1 substrate protein remaining % (WEE1): B (80%< substrate protein remaining %≤ 100%) | IKZF2 substrate protein remaining % (IKZF2): B (80%< substrate protein remaining %≤ 100%) | GSPT1 substrate protein remaining % (GSPT1): A (0% ≤ substrate protein remaining % ≤ 80%)

inhibition at 0.5 µM [1]: 53 to 60% | inhibition at 2 µM [1]: 80 to 100%
Compound: Cc1nc(N2CCN(Cc3ccc4c(c3)CN(C3CCC(=O)NC3=O)C4=S)CC2)c2c3c(sc2n1)CCCC3 (stereo not shown) [GT-09299, 3-(5-((4-(2-methyl-5,6,7,8-tetrahydrobenzo[4,5]thieno[2,3-d]pyrimidin-4-yl)piperazin-1-yl)methyl)-1-thioxoisoindolin-2-yl)piperidine-2,6-dione]
CK1α substrate protein remaining % (CK1α): B (80%< substrate protein remaining %≤ 100%) | IKZF 1 substrate protein remaining % (IKZF1): B (80%< substrate protein remaining %≤ 100%) | IKZF3 substrate protein remaining % (IKZF3): A (0% ≤ substrate protein remaining % ≤ 80%) | Wee1 substrate protein remaining % (WEE1): B (80%< substrate protein remaining %≤ 100%) | IKZF2 substrate protein remaining % (IKZF2): A (0% ≤ substrate protein remaining % ≤ 80%) | GSPT1 substrate protein remaining % (GSPT1): B (80%< substrate protein remaining %≤ 100%)

inhibition at 0.5 µM [1]: 53 to 60% | inhibition at 2 µM [1]: 80 to 100%
Compound: O=C1CCC(N2Cc3cc(CN4CCN(c5ncnc6sc7c(c56)CCCC7)CC4)ccc3C2=S)C(=O)N1 (stereo not shown) [GT-09300, 3-(5-((4-(5,6,7,8-tetrahydrobenzo[4,5]thieno[2,3-d]pyrimidin-4-yl)piperazin-1-yl)methyl)-1-thioxoisoindolin-2-yl)piperidine-2,6-dione]
CK1α substrate protein remaining % (CK1α): B (80%< substrate protein remaining %≤ 100%) | IKZF 1 substrate protein remaining % (IKZF1): A (0% ≤ substrate protein remaining % ≤ 80%) | IKZF3 substrate protein remaining % (IKZF3): A (0% ≤ substrate protein remaining % ≤ 80%) | Wee1 substrate protein remaining % (WEE1): B (80%< substrate protein remaining %≤ 100%) | IKZF2 substrate protein remaining % (IKZF2): A (0% ≤ substrate protein remaining % ≤ 80%) | GSPT1 substrate protein remaining % (GSPT1): B (80%< substrate protein remaining %≤ 100%)
